Calls of active or inactive are those of the source. The rule behind the calls is not given here.
How the values were obtained:
CWR22R [1] = assay: Downregulation of CHEK1 gene expression in human 22Rv1 cells at 1 uM measured after 24 to 36 hrs by RNA sequencing analysis; assay type: functional, cell-based; conditions: time 24-36 hrs
CWR22R [2] = assay: Downregulation of RAD51D gene expression in human 22Rv1 cells at 1 uM measured after 24 to 36 hrs by RNA sequencing analysis; assay type: functional, cell-based; conditions: time 24-36 hrs
CWR22R [3] = assay: Downregulation of CDC25A gene expression in human 22Rv1 cells at 1 uM measured after 24 to 36 hrs by RNA sequencing analysis; assay type: functional, cell-based; conditions: time 24-36 hrs
[4] = Clearance in rat at 5 mg/kg, iv measured upto 24 hrs by LC-MS/MS analysis; assay type: ADME, organism-based; conditions: in vivo
[5] = C0 in rat at 5 mg/kg, iv measured upto 24 hrs by LC-MS/MS analysis; assay type: ADME, organism-based; conditions: in vivo
CWR22R [6] = assay: Downregulation of GREB1L gene expression in human 22Rv1 cells at 1 uM measured after 24 to 36 hrs by RNA sequencing analysis; assay type: functional, cell-based; conditions: time 24-36 hrs
CWR22R [7] = assay: Downregulation of AR genes expression in human 22Rv1 cells at 1 uM measured after 24 to 36 hrs by RNA sequencing analysis; assay type: functional, cell-based; conditions: time 24-36 hrs
CWR22R [8] = assay: Downregulation of BRCA2 gene expression in human 22Rv1 cells at 1 uM measured after 24 to 36 hrs by RNA sequencing analysis; assay type: functional, cell-based; conditions: time 24-36 hrs
CWR22R [9] = assay: Downregulation of BRCA1 gene expression in human 22Rv1 cells at 1 uM measured after 24 to 36 hrs by RNA sequencing analysis; assay type: functional, cell-based; conditions: time 24-36 hrs
CWR22R [10] = assay: Downregulation of FEN1 gene expression in human 22Rv1 cells at 1 uM measured after 24 to 36 hrs by RNA sequencing analysis; assay type: functional, cell-based; conditions: time 24-36 hrs
CWR22R [11] = assay: Downregulation of CDK2 gene expression in human 22Rv1 cells at 1 uM measured after 24 to 36 hrs by RNA sequencing analysis; assay type: functional, cell-based; conditions: time 24-36 hrs
[12] = Elimination rate constant in rat at 5 mg/kg, iv measured upto 24 hrs by LC-MS/MS analysis; assay type: ADME, organism-based; conditions: in vivo
CWR22R [13] = assay: Downregulation of GRB10 gene expression in human 22Rv1 cells at 1 uM measured after 24 to 36 hrs by RNA sequencing analysis; assay type: functional, cell-based; conditions: time 24-36 hrs
CWR22R [14] = assay: Downregulation of MYB gene expression in human 22Rv1 cells at 1 uM measured after 24 to 36 hrs by RNA sequencing analysis; assay type: functional, cell-based; conditions: time 24-36 hrs

## Clc1ccc(COn2nnnc2-c2ccc(Cl)cc2)cc1
CWR22R [1]
  Activity: Active
CWR22R [2]
  Activity: Active
CWR22R [3]
  Activity: Active
[4]
  clearance: 75.9 mL/min/kg
[5]
  C0 at 24 h: 5480 ng/mL
CWR22R [6]
  Activity: Active
CWR22R [7]
  Activity: Active
CWR22R [8]
  Activity: Active
CWR22R [9]
  Activity: Active
CWR22R [10]
  Activity: Active
CWR22R [11]
  Activity: Active
[12]
  k el at 24 h: 0.000292 s⁻¹
CWR22R [13]
  Activity: Active
CWR22R [14]
  Activity: Active

Reference: ChEMBL document CHEMBL5331078, “1-Benzyloxy-5-phenyltetrazole derivatives highly active against androgen receptor-dependent prostate cancer cells” (Eur J Med Chem, 2023)
